We go through 15 compounds from patent publication US20220340597A1, “HEXAHYDRO-1H-PYRAZINO[1,2-A]PYRAZINE COMPOUNDS FOR THE TREATMENT OF AUTOIMMUNE DISEASE” (Hoffmann-La Roche Inc., priority 2019, published 2022).

Experiment [1] has as its target T1, human TLR7 (Homo sapiens, UniProt Q9NYK1).
T1 construct: host or cells: HEK293 (HEK-Blue hTLR7)
T1 sequence (Q9NYK1 27-1049): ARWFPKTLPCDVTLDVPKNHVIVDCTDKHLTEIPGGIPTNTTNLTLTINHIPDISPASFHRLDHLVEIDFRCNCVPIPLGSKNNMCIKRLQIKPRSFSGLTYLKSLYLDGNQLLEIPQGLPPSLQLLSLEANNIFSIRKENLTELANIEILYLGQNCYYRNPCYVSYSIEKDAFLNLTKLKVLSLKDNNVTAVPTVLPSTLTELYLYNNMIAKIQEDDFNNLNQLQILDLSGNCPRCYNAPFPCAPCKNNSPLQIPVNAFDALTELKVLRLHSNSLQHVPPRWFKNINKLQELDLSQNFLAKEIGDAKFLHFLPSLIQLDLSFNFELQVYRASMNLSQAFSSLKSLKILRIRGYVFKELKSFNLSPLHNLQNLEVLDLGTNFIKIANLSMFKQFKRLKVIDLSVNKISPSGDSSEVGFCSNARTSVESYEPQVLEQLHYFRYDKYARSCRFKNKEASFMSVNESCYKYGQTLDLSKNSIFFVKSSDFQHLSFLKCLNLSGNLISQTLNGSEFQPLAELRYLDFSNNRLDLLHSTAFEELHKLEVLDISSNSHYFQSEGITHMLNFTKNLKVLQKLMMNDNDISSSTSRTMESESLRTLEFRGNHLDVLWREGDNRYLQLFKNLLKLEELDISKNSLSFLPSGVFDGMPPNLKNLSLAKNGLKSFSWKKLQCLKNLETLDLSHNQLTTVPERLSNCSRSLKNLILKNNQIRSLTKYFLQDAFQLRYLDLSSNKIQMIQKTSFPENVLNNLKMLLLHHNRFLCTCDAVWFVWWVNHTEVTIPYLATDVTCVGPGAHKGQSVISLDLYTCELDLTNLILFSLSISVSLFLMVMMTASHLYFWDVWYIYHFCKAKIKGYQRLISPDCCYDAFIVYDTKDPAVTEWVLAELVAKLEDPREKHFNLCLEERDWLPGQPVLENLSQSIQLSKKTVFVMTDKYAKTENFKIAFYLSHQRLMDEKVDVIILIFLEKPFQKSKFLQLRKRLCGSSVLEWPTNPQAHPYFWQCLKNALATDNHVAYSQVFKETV
The experiment can be described thus: HEK293-Blue-hTLR-7 cells assay. The note with it: HEK293-Blue-hTLR7 cells, R848 stimulation, 20 hrs, SEAP reporter; read-out: HEK/hTLR7 IC50. Format: cell-based.

Experiment [2] deals with T2, human TLR8 (Homo sapiens, UniProt Q9NR97).
T2 sequence (Q9NR97 27-1041): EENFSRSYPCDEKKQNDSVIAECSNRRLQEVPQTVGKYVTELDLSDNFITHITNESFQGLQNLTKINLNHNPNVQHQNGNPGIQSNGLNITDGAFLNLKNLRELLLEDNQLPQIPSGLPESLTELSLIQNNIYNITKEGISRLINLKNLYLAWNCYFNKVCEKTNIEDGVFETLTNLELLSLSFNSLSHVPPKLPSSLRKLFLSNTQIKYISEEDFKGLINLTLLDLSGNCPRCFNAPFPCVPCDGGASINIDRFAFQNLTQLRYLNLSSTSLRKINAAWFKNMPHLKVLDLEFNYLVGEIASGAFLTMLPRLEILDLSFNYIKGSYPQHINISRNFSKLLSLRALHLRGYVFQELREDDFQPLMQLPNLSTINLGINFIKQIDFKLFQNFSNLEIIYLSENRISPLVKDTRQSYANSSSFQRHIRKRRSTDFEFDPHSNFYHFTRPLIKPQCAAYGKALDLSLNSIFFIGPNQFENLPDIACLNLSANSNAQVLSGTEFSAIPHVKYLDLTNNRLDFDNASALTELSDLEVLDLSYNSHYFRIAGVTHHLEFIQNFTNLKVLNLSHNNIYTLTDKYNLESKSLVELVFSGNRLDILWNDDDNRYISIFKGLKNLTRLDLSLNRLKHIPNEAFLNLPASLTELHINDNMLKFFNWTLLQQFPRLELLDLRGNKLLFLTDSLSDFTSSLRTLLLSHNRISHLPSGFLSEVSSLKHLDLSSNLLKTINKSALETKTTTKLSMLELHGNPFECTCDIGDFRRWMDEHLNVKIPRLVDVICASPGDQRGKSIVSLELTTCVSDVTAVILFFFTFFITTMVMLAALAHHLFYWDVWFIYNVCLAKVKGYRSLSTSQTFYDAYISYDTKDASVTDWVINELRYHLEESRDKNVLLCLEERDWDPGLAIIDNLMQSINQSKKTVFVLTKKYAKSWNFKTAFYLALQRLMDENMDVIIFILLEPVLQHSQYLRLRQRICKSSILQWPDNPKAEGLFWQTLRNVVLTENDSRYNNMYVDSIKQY
The experiment can be described thus: HEK293-Blue-hTLR-8 cells assay.

On to `[2H]c1ccc2c(N3C[C@@H]4CN(c5ncc(N6CC(C)(N)C6)cc5C)CCN4[C@@H](C)C3)ccc(C#N)c2n1` [Example 118, 5-[(4S,9aR)-8-[5-(3-amino-3-methyl-azetidin-1-yl)-3-methyl-2-pyridyl]-4-methyl-3,4,6,7,9,9a-hexahydro-1H-pyrazino[1,2-a]pyrazin-2-yl]-2-deuterio-quinoline-8-carbonitrile], for which the IC50 in experiment [1] is 4 nM; in experiment [2], 6 nM.
The like results for `C[C@@H]1CN(c2ccc(C#N)c3ncccc23)C[C@@H]2CN(CCc3ccc(N4CC5(CNCCO5)C4)nc3)CCN21` [Example 59, 5-[(4R,9aS)-4-methyl-8-[2-[6-(5-oxa-2,8-diazaspiro[3.5]nonan-2-yl)-3-pyridyl]ethyl]-3,4,6,7,9,9a-hexahydro-1H-pyrazino[1,2-a]pyrazin-2-yl]quinoline-8-carbonitrile] were, in that order, 9 nM and 28 nM.
For the compound `C[C@@H]1CN(c2ccc(C#N)c3ncccc23)C[C@@H]2CN(Cc3cnc4c(c3)CNCC4)CCN21` [Example 6, 5-[(4R,9aS)-4-methyl-8-(5,6,7,8-tetrahydro-1,6-naphthyridin-3-ylmethyl)-3,4,6,7,9,9a-hexahydro-1H-pyrazino[1,2-a]pyrazin-2-yl]quinoline-8-carbonitrile], the IC50 in experiment [1] and in experiment [2] was 14 nM in each case.
In the case of `C[C@@H]1CN(c2ccc(C#N)c3ncccc23)C[C@@H]2CN(Cc3cccc4c3CNCC4)CCN21` [Example 71, 5-[(4R,9aS)-4-methyl-8-(1,2,3,4-tetrahydroisoquinolin-8-ylmethyl)-3,4,6,7,9,9a-hexahydro-1H-pyrazino[1,2-a]pyrazin-2-yl]quinoline-8-carbonitrile], the IC50 was determined as 45 nM in experiment [1] and 21 nM in experiment [2].
Consider `C[C@@H]1CN(c2ccc(C#N)c3ncccc23)C[C@@H]2CN(c3ccnc(N4C[C@@H](F)[C@@H](N)C4)c3)CCN21` [Example 40, 5-[(4R,9aS)-8-[2-[(3S,4R)-3-amino-4-fluoro-pyrrolidin-1-yl]-4-pyridyl]-4-methyl-3,4,6,7,9,9a-hexahydro-1H-pyrazino[1,2-a]pyrazin-2-yl]quinoline-8-carbonitrile], for which the IC50 in experiment [1] and in experiment [2] was 7 nM in each case.
With `C[C@@H]1CN(c2ccc(C#N)c3ncccc23)C[C@@H]2CN(Cc3ccc4c(c3)CCNC4)CCN21` [Example 10, 5-[(4R,9aS)-4-methyl-8-(1,2,3,4-tetrahydroisoquinolin-6-ylmethyl)-3,4,6,7,9,9a-hexahydro-1H-pyrazino[1,2-a]pyrazin-2-yl]quinoline-8-carbonitrile], the IC50 in experiment [1] was 26 nM; in experiment [2], 12 nM.
The like results for `C[C@@H]1CN(c2ccc(C#N)c3ncccc23)C[C@@H]2CN(c3nccc(N4CCNCC4)n3)CCN21` [Example 30, 5-[(4R,9aR)-4-methyl-8-(4-piperazin-1-ylpyrimidin-2-yl)-3,4,6,7,9,9a-hexahydro-1H-pyrazino[1,2-a]pyrazin-2-yl]quinoline-8-carbonitrile] were, in that order, 16 nM and 21 nM.
The like results for `[2H]c1ccc2c(N3C[C@@H]4CN(Cc5ccc6c(c5)CNCC6)CCN4[C@H](C)C3)ccc(C#N)c2n1` [Example 61, 5-[(4R,9aS)-4-methyl-8-(1,2,3,4-tetrahydroisoquinolin-7-ylmethyl)-3,4,6,7,9,9a-hexahydro-1H-pyrazino[1,2-a]pyrazin-2-yl]-2-deuterio-quinoline-8-carbonitrile] were, in that order, 16 nM and 8 nM.
As for `[2H]c1ccc2c(N3C[C@@H]4CN(c5ccc6c(n5)CCNC6)CCN4[C@@H](C)C3)ccc(C#N)c2n1` [Example 121, 5-[(4S,9aR)-4-methyl-8-(5,6,7,8-tetrahydro-1,6-naphthyridin-2-yl)-3,4,6,7,9,9a-hexahydro-1H-pyrazino[1,2-a]pyrazin-2-yl]-2-deuterio-quinoline-8-carbonitrile], the IC50 was 5 nM in experiment [1] and 1 nM in experiment [2].
With `[2H]c1ccc2c(N3C[C@@H]4CN(c5ccc(CN6C[C@@H](N)[C@H](OC)C6)c(C)n5)CCN4[C@@H](C)C3)ccc(C#N)c2n1` [Example 123, 5-[(4S,9aR)-8-[5-[[(3R,4R)-3-amino-4-methoxy-pyrrolidin-1-yl]methyl]-6-methyl-2-pyridyl]-4-methyl-3,4,6,7,9,9a-hexahydro-1H-pyrazino[1,2-a]pyrazin-2-yl]-2-deuterio-quinoline-8-carbonitrile], the figures for the IC50 in experiment [1] and in experiment [2] were 27 nM and 6 nM, respectively.
Take `Cc1cc(N2CCN3[C@@H](C2)CN(c2ccc(C#N)c4ncccc24)C[C@H]3C)cc(N2CC(C)(N)C2)n1` [Example 73, 5-[(4R,9aS)-8-[2-(3-amino-3-methyl-azetidin-1-yl)-6-methyl-4-pyridyl]-4-methyl-3,4,6,7,9,9a-hexahydro-1H-pyrazino[1,2-a]pyrazin-2-yl]quinoline-8-carbonitrile]: the results for the IC50 in experiment [1] and in experiment [2] were 25 nM and 18 nM, respectively.
The like results for `CO[C@@H]1CN(c2ccc(CCN3CCN4[C@@H](C3)CN(c3ccc(C#N)c5ncccc35)C[C@H]4C)cn2)C[C@H]1N` [Example 12, 5-[(4R,9aS)-8-[2-[6-[(3R,4R)-3-amino-4-methoxy-pyrrolidin-1-yl]-3-pyridyl]ethyl]-4-methyl-3,4,6,7,9,9a-hexahydro-1H-pyrazino[1,2-a]pyrazin-2-yl]quinoline-8-carbonitrile] were, in that order, 12 nM and 14 nM.
The like results for `C[C@@H]1CN(c2ccc(C#N)c3ncccc23)C[C@@H]2CN(c3nccc(N4CC(N)C4)n3)CCN21` [Example 39, 5-[(4R,9aR)-8-[4-(3-aminoazetidin-1-yl)pyrimidin-2-yl]-4-methyl-3,4,6,7,9,9a-hexahydro-1H-pyrazino[1,2-a]pyrazin-2-yl]quinoline-8-carbonitrile] were, in that order, 21 nM and 17 nM.
The like results for `CO[C@@H]1CN(c2nc(C)cc(N3CCN4[C@@H](C3)CN(c3ccc(C#N)c5ncccc35)C[C@H]4C)n2)C[C@H]1N` [Example 45, 5-[(4R,9aR)-8-[2-[(3R,4R)-3-amino-4-methoxy-pyrrolidin-1-yl]-6-methyl-pyrimidin-4-yl]-4-methyl-3,4,6,7,9,9a-hexahydro-1H-pyrazino[1,2-a]pyrazin-2-yl]quinoline-8-carbonitrile] were, in that order, 18 nM and 28 nM.
For `C[C@@H]1CN(c2ccc(C#N)c3ncccc23)C[C@@H]2CN(c3ccnc(N4CC(N)C4)c3)CCN21` [Example 41, 5-[(4R,9aS)-8-[2-(3-aminoazetidin-1-yl)-4-pyridyl]-4-methyl-3,4,6,7,9,9a-hexahydro-1H-pyrazino[1,2-a]pyrazin-2-yl]quinoline-8-carbonitrile], the values for the IC50 in experiment [1] and in experiment [2] were 35 nM and 7 nM, respectively.
